{
  "source": "patent US10745399B2",
  "about": "(priority 2015, dated 2020)",
  "data": [
    {"system": "CHK2 phosphorylation (phospho-Thr68) in HCT116 cells", "assay": "Cellular pCHK2 assay, bleomycin-induced phosphorylation of CHK2 (phospho-Thr68), immunofluorescence high content", "assay_type": "cell-based", "conditions": "Homo sapiens, HCT-116; HCT116 cells, 10 μM bleomycin, 4 h; read-out: IC50 (pCHK2)", "text": "For the identification of substances which inhibit the phosphorylation of the protein kinase CHK2 at the amino acid threonine 68, an immunofluorescence-based “high content” analysis assay was used in HCT116 cells.\nIn vitro cell-based immunofluorescence assay for the identification of inhibitors of bleomycin-induced phosphorylation of CHK2 (phospho-Thr68) in the human colon carcinoma cell line HCT116:\nHCT116 cells are sown out in a defined cell density in 384-well plates in culture medium (DMEM high glucose, 2 mM GlutaMax, 1 mM Na pyruvate, 10% FCS) and incubated overnight at 37° C. and 10% of CO2. On the following day, the test substances are added in a defined concentration range (1 nM to 30 μM) in combination with 10 μM bleomycin, where the concentration of the solvent DMSO is kept constant at 0.5%. After incubation for four hours at 37° C. and 10% of CO2, the cells are fixed (5 min, 4% formaldehyde in PBS), permeabilised (10 min, 0.2% Triton X-100 in PBS) and, after blocking of nonspecific binding sites (10% goat serum, 1% BSA in PBS), incubated overnight at 4° C. with a specific anti-pCHK2 antibody (cell signalling #2661). pCHK2 (Thr68) is determined using an Alexa488-labelled secondary anti-rabbit IgG antibody. Parallel staining of DNA with propidium iodide enables determination of the cell count. The pCHK2 signal is detected using a high-content imager (Molecular Devices IMX Ultra) and automatic image analysis using the MetaXpress software belonging to the instrument. The number of cell nuclei which have a pCHK2 signal above a defined background is determined.", "units": {"IC50": "nM"}, "values": [
      {"compound": "COc1cnc(-n2c(=O)n(C)c3cnc4cc(OC)c(-c5cn(C)nc5C)cc4c32)c(F)c1", "note": "[compound 106, 8-(1,3-Dimethyl-1H-pyrazol-4-yl)-1-(3-fluoro-5-methoxypyridin-2-yl)-7-methoxy-3-methyl-1,3-dihydroimidazo[4,5-c]-quinolin-2-one]", "IC50": "200 to 1000"},
      {"compound": "COc1cc2ncc3c(c2cc1-c1cn(C)nc1C)n(-c1ncc(OCS(C)(=O)=O)cc1F)c(=O)n3C", "note": "[compound 203, 8-(1,3-Dimethyl-1H-pyrazol-4-yl)-1-(3-fluoro-5-methyl-sulfonylmethoxypyridin-2-yl)-7-methoxy-3-methyl-1,3-dihydroimidazo[4,5-c]-quinolin-2-one]", "IC50": "200 to 1000"},
      {"compound": "CCn1cc(-n2c(=O)n(C)c3cnc4cc(OC)c(-c5cn(C)nc5C)cc4c32)c(C)n1", "note": "[compound 135, 8-(1,3-Dimethyl-1H-pyrazol-4-yl)-1-(1-ethyl-3-methyl-1H-pyrazol-4-yl)-7-methoxy-3-methyl-1,3-dihydro-imidazo[4,5-c]quinolin-2-one]", "IC50": "200 to 1000"},
      {"compound": "COc1cc2ncc3c(c2cc1-c1cnn(C)c1)n(-c1ccncc1C1CC1)c(=O)n3C", "note": "[compound 200, 1-(3-Cyclopropylpyridin-4-yl)-7-methoxy-3-methyl-8-(1-methyl-1H-pyrazol-4-yl)-1,3-dihydroimidazo[4,5-c] quinolin-2-one]", "IC50": "200 to 1000"},
      {"compound": "COc1cc2ncc3c(c2cc1-c1cnn(C)c1)n(-c1ccc2ccccc2n1)c(=O)n3C", "note": "[compound 68, 7-Methoxy-3-methyl-8-(1-methyl-1H-pyrazol-4-yl)-1-quinolin-2-yl-1,3-dihydro-imidazo[4,5-c]quinolin-2-one]", "IC50": "1000 to 2000"},
      {"compound": "COc1cc2ncc3c(c2cc1-c1cn(C)nn1)n(-c1c(C)cncc1F)c(=O)n3C", "note": "[compound 63, 1-(3-Fluoro-5-methylpyridin-4-yl)-7-methoxy-3-methyl-8-(1-methyl-1H-1,2,3-triazol-4-yl)-1,3-dihydroimidazo-[4,5-c]quinolin-2-one]", "IC50": "200 to 1000"},
      {"compound": "COc1cc2ncc3c(c2cc1-c1cnc2nc(C)[nH]c2c1)n(-c1c(F)cncc1OC)c(=O)n3C", "note": "[compound 152, 1-(3-Fluoro-5-methoxy-pyridin-4-yl)-7-methoxy-3-methyl-8-(2-methyl-1H-imidazo[4,5-b]pyridin-6-yl)-1,3-dihydroimidazo[4,5-c]-quinolin-2-one]", "IC50": "< 200"},
      {"compound": "COc1cnc(-n2c(=O)n(C)c3cnc4cc(OC)c(-c5ccc6nc[nH]c6c5)cc4c32)c(F)c1", "note": "[compound 153, 8-(3H-Benzimidazol-5-yl)-1-(3-fluoro-5-methoxypyridin-2-yl)-7-methoxy-3-methyl-1,3-dihydroimidazo[4,5-c]-quinolin-2-one]", "IC50": "200 to 1000"},
      {"compound": "CNCCOc1cnc(-n2c(=O)n(C)c3cnc4cc(OC)c(-c5cnn(C)c5)cc4c32)c(F)c1", "note": "[compound 206]", "IC50": "200 to 1000"},
      {"compound": "COc1cc2ncc3c(c2cc1-c1cnn(C)c1)n(-c1ccccn1)c(=O)n3C", "note": "[Compound Example 56, 7-Methoxy-3-methyl-8-(1-methyl-1H-pyrazol-4-yl)-1-pyridin-2-yl-1,3-dihydro-imidazo[4,5-c]quinolin-2-one]", "IC50": "200 to 1000"},
      {"compound": "COc1cc2ncc3c(c2cc1-c1ccc2nc(C)[nH]c2c1)n(-c1cn(C)nc1C)c(=O)n3C", "note": "[compound 132, 1-(1,3-Dimethyl-1H-pyrazol-4-yl)-7-methoxy-3-methyl-8-(2-methyl-3H-benzo-imidazol-5-yl)-1,3-dihydro-imidazo[4,5-c]quinolin-2-one]", "IC50": "200 to 1000"},
      {"compound": "C=CCOc1cnc(-n2c(=O)n(C)c3cnc4cc(OC)c(-c5cnn(C)c5)cc4c32)c(F)c1", "note": "[compound 204, 1-(5-Allyloxy-3-fluoropyridin-2-yl)-7-methoxy-3-methyl-8-(1-methyl-1H-pyrazol-4-yl)-1,3-dihydroimidazo[4,5-c]-quinolin-2-one]", "IC50": "200 to 1000"},
      {"compound": "COc1cnc(-n2c(=O)n(C)c3cnc4cc(OC)c(-c5cnn[nH]5)cc4c32)c(F)c1", "note": "[compound 128, 1-(3-Fluoro-5-methoxy-pyridin-2-yl)-7-methoxy-3-methyl-8-(3H-1,2,3-triazol-4-yl)-1,3-dihydroimidazo-[4,5-c]quinolin-2-one]", "IC50": "200 to 1000"},
      {"compound": "COc1cc2ncc3c(c2cc1-c1cnn(C)n1)n(-c1ncc(F)cc1F)c(=O)n3C", "note": "[compound 101, 1-(3,5-Difluoropyridin-2-yl)-7-methoxy-3-methyl-8-(2-methyl-2H-1,2,3-triazol-4-yl)-1,3-dihydroimidazo-[4,5-c]quinolin-2-one]", "IC50": "< 200"},
      {"compound": "COc1cc2ncc3c(c2cc1-c1cnn(C)c1)n(-c1ncccn1)c(=O)n3C", "note": "[Compound Example 52, 7-Methoxy-3-methyl-8-(1-methyl-1H-pyrazol-4-yl)-1-pyrimidin-2-yl-1,3-dihydro-imidazo[4,5-c]quinolin-2-one]", "IC50": "200 to 1000"},
      {"compound": "COc1cc2ncc3c(c2cc1-c1cn(C)nn1)n(-c1c(F)cncc1OC)c(=O)n3C", "note": "[compound 131, 1-(3-Fluoro-5-methoxy-pyridin-4-yl)-7-methoxy-3-methyl-8-(1-methyl-1H-1,2,3-triazol-4-yl)-1,3-dihydroimidazo[4,5-c]-quinolin-2-one]", "IC50": "200 to 1000"},
      {"compound": "COc1cc2ncc3c(c2cc1-c1cnn(C)c1)n(-c1ccc2cc[nH]c2n1)c(=O)n3C", "note": "[compound 69, 7-Methoxy-3-methyl-8-(1-methyl-1H-pyrazol-4-yl)-1-(1H-pyrrolo[2,3-b]pyridin-6-yl)1,3-dihydroimidazo-[4,5-c]quinolin-2-one]", "IC50": "200 to 1000"},
      {"compound": "COc1cc2ncc3c(c2cc1-c1cnn(C)n1)n(-c1ncccc1F)c(=O)n3C", "note": "[compound 158, 1-(3-Fluoropyridin-2-yl)-7-methoxy-3-methyl-8-(2-methyl-2H-1,2,3-triazol-4-yl)-1,3-dihydroimidazo-[4,5-c]quinolin-2-one]", "IC50": "200 to 1000"},
      {"compound": "COc1cc2ncc3c(c2cc1-c1cnn(C)n1)n(-c1cn(C)nc1C)c(=O)n3C", "note": "[compound 102, 1-(1,3-Dimethyl-1H-pyrazol-4-yl)-7-methoxy-3-methyl-8-(2-methyl-2H-1,2,3-triazol-4-yl)-1,3-dihydroimidazo-[4,5-c]quinolin-2-one]", "IC50": "< 200"},
      {"compound": "CNC(=O)c1cnc(-n2c(=O)n(C)c3cnc4cc(OC)c(-c5cn(C)nc5C)cc4c32)c(F)c1", "note": "[compound 139, 6-[8-(1,3-Dimethyl-1H-pyrazol-4-yl)-7-methoxy-3-methyl-2-oxo-2,3-dihydro-imidazo[4,5-c]quinolin-1-yl]-5-fluoro-N-methyl-nicotinamid]", "IC50": "200 to 1000"},
      {"compound": "CCc1cncc(F)c1-n1c(=O)n(C)c2cnc3cc(OC)c(-c4cnn(C)n4)cc3c21", "note": "[compound 112, 1-(3-Ethyl-5-fluoropyridin-4-yl)-7-methoxy-3-methyl-8-(2-methyl-2H-1,2,3-triazol-4-yl)-1,3-dihydroimidazo-[4,5-c]quinolin-2-one]", "IC50": "200 to 1000"},
      {"compound": "COc1cc2ncc3c(c2cc1-c1cnc2nc(C)[nH]c2c1)n(-c1cn(C)nc1C)c(=O)n3C", "note": "[compound 154, 1-(1,3-Dimethyl-1H-pyrazol-4-yl)-7-methoxy-3-methyl-8-(2-methyl-1H-imidazo[4,5-b]pyridin-6-yl)-1,3-dihydro-imidazo[4,5-c]quinolin-2-one]", "IC50": "1000 to 2000"},
      {"compound": "COc1cc2ncc3[nH]c(=O)n(-c4ncc(F)cc4F)c3c2cc1-c1cnn(C)c1", "note": "[compound 107, 1-(3,5-Difluoropyridin-2-yl)-7-methoxy-8-(1-methyl-1H-pyrazol-4-yl)-1,3-dihydro-imidazo[4,5-c]quinolin-2-one]", "IC50": "200 to 1000"}
    ]}
  ]
}
